# Measurements from PubChem BioAssay (NCI).
#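 Briefly, cells in 96-well plates were exposed to five compound concentrations for 48 h, and endpoints were estimated by linear interpolation. GI50 marks 50% less growth. The concentration for full growth arrest is given as TGI.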
# Assays:
# Experiment in all cases: growth of human tumour cells (NCI), 48 h
# COLO 205 colon = system: COLO 205 colon
# SK-MEL-28 melanoma = system: SK-MEL-28 melanoma
# SNB-19 CNS = system: SNB-19 CNS
# HT29 colon = system: HT29 colon
# SNB-75 CNS = system: SNB-75 CNS
# ACHN renal = system: ACHN renal
# A549 NSCLC = system: A549 NSCLC
# HCT-116 colon = system: HCT-116 colon
# OVCAR-3 ovarian = system: OVCAR-3 ovarian
# HL-60(TB) leukemia = system: HL-60(TB) leukemia
# LOX IMVI melanoma = system: LOX IMVI melanoma
# UACC-257 melanoma = system: UACC-257 melanoma
# NCI-H23 lung = system: NCI-H23 lung
# DU-145 prostate = system: DU-145 prostate
# SF-295 CNS = system: SF-295 CNS
# MALME-3M melanoma = system: MALME-3M melanoma
# SK-MEL-2 melanoma = system: SK-MEL-2 melanoma
# OVCAR-5 ovarian = system: OVCAR-5 ovarian
# MCF7 breast = system: MCF7 breast
# A498 renal = system: A498 renal
# 786-0 renal = system: 786-0 renal
# TK-10 renal = system: TK-10 renal
# K-562 leukemia = system: K-562 leukemia
# SK-MEL-5 melanoma = system: SK-MEL-5 melanoma
# NCI-H460 lung = system: NCI-H460 lung
# U251 CNS = system: U251 CNS
# SN12C renal = system: SN12C renal
# BT-549 breast = system: BT-549 breast
# OVCAR-8 ovarian = system: OVCAR-8 ovarian
# RXF 393 renal = system: RXF 393 renal
# HCC-2998 colon = system: HCC-2998 colon
# IGROV1 ovarian = system: IGROV1 ovarian
# KM12 colon = system: KM12 colon
# NCI-H522 lung = system: NCI-H522 lung
# NCI/ADR-RES ovarian = system: NCI/ADR-RES ovarian
# UACC-62 melanoma = system: UACC-62 melanoma
# NCI-H226 lung = system: NCI-H226 lung
# UO-31 renal = system: UO-31 renal
# HOP-62 NSCLC = system: HOP-62 NSCLC
# SK-OV-3 ovarian = system: SK-OV-3 ovarian
# SF-268 CNS = system: SF-268 CNS
# MDA-MB-435 = system: MDA-MB-435
# OVCAR-4 ovarian = system: OVCAR-4 ovarian
# HS 578T breast = system: HS 578T breast
# SF-539 CNS = system: SF-539 CNS
# MDA-MB-231 breast = system: MDA-MB-231 breast
# EKVX NSCLC = system: EKVX NSCLC
# MOLT-4 leukemia = system: MOLT-4 leukemia
# HCT-15 colon = system: HCT-15 colon
# CAKI-1 renal = system: CAKI-1 renal
# SW-620 colon = system: SW-620 colon
# T-47D breast = system: T-47D breast
# M14 melanoma = system: M14 melanoma
# HOP-92 NSCLC = system: HOP-92 NSCLC
# PC-3 prostate = system: PC-3 prostate
# RPMI-8226 leukemia = system: RPMI-8226 leukemia
structure (smiles),measurement,setting,value
COc1ccc(CN=C(N)N=C(N)N)cc1OC,GI50,COLO 205 colon,> 1000 µM
same,TGI,COLO 205 colon,> 1000 µM
same,GI50,SK-MEL-28 melanoma,960 µM
same,TGI,SK-MEL-28 melanoma,> 1000 µM
same,GI50,SNB-19 CNS,482 µM
same,TGI,SNB-19 CNS,> 1000 µM
same,GI50,HT29 colon,> 1000 µM
same,TGI,HT29 colon,> 1000 µM
same,GI50,SNB-75 CNS,192 µM
same,TGI,SNB-75 CNS,> 1000 µM
same,GI50,ACHN renal,> 1000 µM
same,TGI,ACHN renal,> 1000 µM
same,GI50,A549 NSCLC,404 µM
same,TGI,A549 NSCLC,> 1000 µM
same,GI50,HCT-116 colon,> 1000 µM
same,TGI,HCT-116 colon,> 1000 µM
same,GI50,OVCAR-3 ovarian,612 µM
same,TGI,OVCAR-3 ovarian,> 1000 µM
same,GI50,HL-60(TB) leukemia,706 µM
same,TGI,HL-60(TB) leukemia,> 1000 µM
same,GI50,LOX IMVI melanoma,> 1000 µM
same,TGI,LOX IMVI melanoma,> 1000 µM
same,GI50,UACC-257 melanoma,448 µM
same,TGI,UACC-257 melanoma,> 1000 µM
same,GI50,NCI-H23 lung,522 µM
same,TGI,NCI-H23 lung,> 1000 µM
same,GI50,DU-145 prostate,> 1000 µM
same,TGI,DU-145 prostate,> 1000 µM
same,GI50,SF-295 CNS,194 µM
same,TGI,SF-295 CNS,> 1000 µM
same,GI50,MALME-3M melanoma,365 µM
same,TGI,MALME-3M melanoma,> 1000 µM
same,GI50,SK-MEL-2 melanoma,859 µM
same,TGI,SK-MEL-2 melanoma,> 1000 µM
same,GI50,OVCAR-5 ovarian,> 1000 µM
same,TGI,OVCAR-5 ovarian,> 1000 µM
same,GI50,MCF7 breast,855 µM
same,TGI,MCF7 breast,> 1000 µM
same,GI50,A498 renal,151 µM
same,TGI,A498 renal,> 1000 µM
same,GI50,786-0 renal,> 1000 µM
same,TGI,786-0 renal,> 1000 µM
same,GI50,TK-10 renal,> 1000 µM
same,TGI,TK-10 renal,> 1000 µM
same,GI50,K-562 leukemia,362 µM
same,TGI,K-562 leukemia,> 1000 µM
same,GI50,SK-MEL-5 melanoma,223 µM
same,TGI,SK-MEL-5 melanoma,> 1000 µM
same,GI50,NCI-H460 lung,> 1000 µM
same,TGI,NCI-H460 lung,> 1000 µM
same,GI50,U251 CNS,398 µM
same,TGI,U251 CNS,> 1000 µM
same,GI50,SN12C renal,358 µM
same,TGI,SN12C renal,> 1000 µM
same,GI50,BT-549 breast,260 µM
same,TGI,BT-549 breast,> 1000 µM
same,GI50,OVCAR-8 ovarian,444 µM
same,TGI,OVCAR-8 ovarian,> 1000 µM
same,GI50,RXF 393 renal,> 1000 µM
same,TGI,RXF 393 renal,> 1000 µM
same,GI50,HCC-2998 colon,> 1000 µM
same,TGI,HCC-2998 colon,> 1000 µM
same,GI50,IGROV1 ovarian,> 1000 µM
same,TGI,IGROV1 ovarian,> 1000 µM
same,GI50,KM12 colon,> 1000 µM
same,TGI,KM12 colon,> 1000 µM
same,GI50,NCI-H522 lung,714 µM
same,TGI,NCI-H522 lung,> 1000 µM
same,GI50,NCI/ADR-RES ovarian,> 1000 µM
same,TGI,NCI/ADR-RES ovarian,> 1000 µM
same,GI50,UACC-62 melanoma,558 µM
same,TGI,UACC-62 melanoma,> 1000 µM
same,GI50,NCI-H226 lung,619 µM
same,TGI,NCI-H226 lung,> 1000 µM
same,GI50,UO-31 renal,> 1000 µM
same,TGI,UO-31 renal,> 1000 µM
same,GI50,HOP-62 NSCLC,602 µM
same,TGI,HOP-62 NSCLC,> 1000 µM
same,GI50,SK-OV-3 ovarian,> 1000 µM
same,TGI,SK-OV-3 ovarian,> 1000 µM
same,GI50,SF-268 CNS,472 µM
same,TGI,SF-268 CNS,> 1000 µM
same,GI50,MDA-MB-435,> 1000 µM
same,TGI,MDA-MB-435,> 1000 µM
same,GI50,OVCAR-4 ovarian,215 µM
same,TGI,OVCAR-4 ovarian,> 1000 µM
same,GI50,HS 578T breast,> 1000 µM
same,TGI,HS 578T breast,> 1000 µM
same,GI50,SF-539 CNS,> 1000 µM
same,TGI,SF-539 CNS,> 1000 µM
same,GI50,MDA-MB-231 breast,> 1000 µM
same,TGI,MDA-MB-231 breast,> 1000 µM
same,GI50,EKVX NSCLC,40.1 µM
same,TGI,EKVX NSCLC,> 1000 µM
same,GI50,MOLT-4 leukemia,> 1000 µM
same,TGI,MOLT-4 leukemia,> 1000 µM
same,GI50,HCT-15 colon,> 1000 µM
same,TGI,HCT-15 colon,> 1000 µM
same,GI50,CAKI-1 renal,> 1000 µM
same,TGI,CAKI-1 renal,> 1000 µM
same,GI50,SW-620 colon,> 1000 µM
same,TGI,SW-620 colon,> 1000 µM
same,GI50,T-47D breast,907 µM
same,TGI,T-47D breast,> 1000 µM
same,GI50,M14 melanoma,> 1000 µM
same,TGI,M14 melanoma,> 1000 µM
O=C(CN1C(=O)S/C(=C\C(Cl)=C\c2ccccc2)C1=O)NCCCn1ccnc1,GI50,COLO 205 colon,2.1 µM
same,TGI,COLO 205 colon,4.82 µM
same,GI50,SK-MEL-28 melanoma,1.85 µM
same,TGI,SK-MEL-28 melanoma,3.72 µM
same,GI50,SNB-19 CNS,3.14 µM
same,TGI,SNB-19 CNS,13 µM
same,GI50,HT29 colon,2.18 µM
same,TGI,HT29 colon,6.07 µM
same,GI50,SNB-75 CNS,1.22 µM
same,TGI,SNB-75 CNS,12.9 µM
same,GI50,ACHN renal,1.99 µM
same,TGI,ACHN renal,5.22 µM
same,GI50,A549 NSCLC,3.3 µM
same,TGI,A549 NSCLC,23.2 µM
same,GI50,HCT-116 colon,1.53 µM
same,TGI,HCT-116 colon,3.14 µM
same,GI50,OVCAR-3 ovarian,1.76 µM
same,TGI,OVCAR-3 ovarian,3.25 µM
same,GI50,LOX IMVI melanoma,1.37 µM
same,TGI,LOX IMVI melanoma,2.75 µM
same,GI50,UACC-257 melanoma,2.63 µM
same,TGI,UACC-257 melanoma,10.2 µM
same,GI50,NCI-H23 lung,2.26 µM
same,TGI,NCI-H23 lung,6.88 µM
same,GI50,DU-145 prostate,2.22 µM
same,TGI,DU-145 prostate,5.64 µM
same,GI50,SF-295 CNS,10 µM
same,TGI,SF-295 CNS,24.4 µM
same,GI50,MALME-3M melanoma,1.82 µM
same,TGI,MALME-3M melanoma,4.9 µM
same,GI50,SK-MEL-2 melanoma,2.8 µM
same,TGI,SK-MEL-2 melanoma,9.55 µM
same,GI50,OVCAR-5 ovarian,2.4 µM
same,TGI,OVCAR-5 ovarian,6.47 µM
same,GI50,HOP-92 NSCLC,1.76 µM
same,TGI,HOP-92 NSCLC,4.46 µM
same,GI50,MCF7 breast,1.36 µM
same,TGI,MCF7 breast,6.11 µM
same,GI50,A498 renal,1.28 µM
same,TGI,A498 renal,5.57 µM
same,GI50,786-0 renal,1.98 µM
same,TGI,786-0 renal,3.91 µM
same,GI50,TK-10 renal,2.3 µM
same,TGI,TK-10 renal,4.53 µM
same,GI50,K-562 leukemia,2.17 µM
same,TGI,K-562 leukemia,> 100 µM
same,GI50,SK-MEL-5 melanoma,1.68 µM
same,TGI,SK-MEL-5 melanoma,3.06 µM
same,GI50,NCI-H460 lung,2.21 µM
same,TGI,NCI-H460 lung,6.44 µM
same,GI50,U251 CNS,2.54 µM
same,TGI,U251 CNS,8.01 µM
same,GI50,PC-3 prostate,2.03 µM
same,TGI,PC-3 prostate,5.74 µM
same,GI50,SN12C renal,2.26 µM
same,TGI,SN12C renal,7.49 µM
same,GI50,BT-549 breast,2.12 µM
same,TGI,BT-549 breast,4.83 µM
same,GI50,OVCAR-8 ovarian,2.85 µM
same,TGI,OVCAR-8 ovarian,> 100 µM
same,GI50,RXF 393 renal,1.83 µM
same,TGI,RXF 393 renal,3.68 µM
same,GI50,HCC-2998 colon,1.88 µM
same,TGI,HCC-2998 colon,3.57 µM
same,GI50,IGROV1 ovarian,1.82 µM
same,TGI,IGROV1 ovarian,4.23 µM
same,GI50,KM12 colon,1.95 µM
same,TGI,KM12 colon,4.22 µM
same,GI50,NCI-H522 lung,2.02 µM
same,TGI,NCI-H522 lung,5.15 µM
same,GI50,NCI/ADR-RES ovarian,4.13 µM
same,TGI,NCI/ADR-RES ovarian,> 100 µM
same,GI50,UACC-62 melanoma,1.67 µM
same,TGI,UACC-62 melanoma,3.73 µM
same,GI50,NCI-H226 lung,2.16 µM
same,TGI,NCI-H226 lung,5.19 µM
same,GI50,RPMI-8226 leukemia,1.78 µM
same,TGI,RPMI-8226 leukemia,6.74 µM
same,GI50,UO-31 renal,1.61 µM
same,TGI,UO-31 renal,3.49 µM
same,GI50,HOP-62 NSCLC,3.45 µM
same,TGI,HOP-62 NSCLC,22.5 µM
same,GI50,SK-OV-3 ovarian,5.23 µM
same,TGI,SK-OV-3 ovarian,> 100 µM
same,GI50,SF-268 CNS,2.52 µM
same,TGI,SF-268 CNS,7.65 µM
same,GI50,MDA-MB-435,1.99 µM
same,TGI,MDA-MB-435,4.19 µM
same,GI50,OVCAR-4 ovarian,1.86 µM
same,TGI,OVCAR-4 ovarian,4.39 µM
same,GI50,HS 578T breast,2.4 µM
same,TGI,HS 578T breast,7.35 µM
same,GI50,SF-539 CNS,2.08 µM
same,TGI,SF-539 CNS,5.27 µM
same,GI50,EKVX NSCLC,2.43 µM
same,TGI,EKVX NSCLC,6.69 µM
same,GI50,MOLT-4 leukemia,2.1 µM
same,TGI,MOLT-4 leukemia,7.57 µM
same,GI50,HCT-15 colon,1.95 µM
same,TGI,HCT-15 colon,7 µM
same,GI50,CAKI-1 renal,1.91 µM
same,TGI,CAKI-1 renal,4.16 µM
same,GI50,SW-620 colon,1.72 µM
same,TGI,SW-620 colon,3.67 µM
same,GI50,T-47D breast,2.8 µM
same,TGI,T-47D breast,17.2 µM
same,GI50,M14 melanoma,1.66 µM
same,TGI,M14 melanoma,3.59 µM
